Measurements: ChEMBL document CHEMBL1201862, “PubChem BioAssay data set” (2004)
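How tested: cells in 96-well plates exposed to compound for 48 hours at five concentrations. At the GI50, growth is halved.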 Calls of active or inactive are those of the source. Rule as the data show it: active = GI50 up to about 1.1 µM and inactive = higher.

Legend:
Test in all cases: NCI anticancer screen, dose series, 48 h
RXF 631 = test system: RXF 631
BT-549 = test system: BT-549
DU-145 = test system: DU-145
Hs-578T = test system: Hs-578T
MDA-MB-231 = test system: MDA-MB-231
MDA-MB-435 = test system: MDA-MB-435
MDA-N = test system: MDA-N
PC-3 = test system: PC-3
T47D = test system: T47D

With `CCOCc1cc(=O)c2c(O)cc3c(c2o1)CCC(C)(C)O3` the GI50 (RXF 631) was > 100 µM (inactive).

With `O=[S@@]1Nc2ccc(Br)cc2S1` the GI50 (RXF 631) was 3.3 µM (inactive).

With `CCOC(=O)C(Cc1c(-c2[nH]c3ccccc3c2CC(NC(=O)CNC(C)=O)C(=O)OCC)[nH]c2ccccc12)NC(=O)CNC(C)=O` (configuration not stated) the GI50 (BT-549) was > 100 µM (inactive), the GI50 (DU-145) was > 100 µM (inactive) and the GI50 (Hs-578T) was 32.6 µM (inactive). The GI50 (MDA-MB-231) was 16.5 µM (inactive), the GI50 (MDA-MB-435) was > 100 µM (inactive) and the GI50 (MDA-N) was > 100 µM (inactive). For the same compound, the GI50 (PC-3) was > 100 µM (inactive).

With `Clc1ccc(N/N=C(\c2ccccc2)c2ccccn2)nc1` the GI50 (BT-549) was 1.85 µM (inactive), the GI50 (DU-145) was 0.333 µM (active) and the GI50 (Hs-578T) was 0.456 µM (active). For the same compound, the GI50 (MDA-MB-231) was < 0.0187 µM (active), the GI50 (MDA-MB-435) was 0.627 µM (active) and the GI50 (MDA-N) was 2.48 µM (inactive). For the same compound, the GI50 (PC-3) was 0.0463 µM (active) and the GI50 (T47D) was < 0.01 µM (active).

For `CC(=O)N(C(=O)CC(=O)N1N=C(C)C(/N=N/c2cccc([N+](=O)[O-])c2)C1=O)c1ccc(Cl)cc1` (configuration not stated), the GI50 (BT-549) was > 10 µM (inactive), the GI50 (DU-145) was > 10 µM (inactive) and the GI50 (Hs-578T) was > 10 µM (inactive). The GI50 (MDA-MB-231) was > 10 µM (inactive), the GI50 (MDA-MB-435) was > 10 µM (inactive) and the GI50 (MDA-N) was > 10 µM (inactive). For the same compound, the GI50 (PC-3) was > 10 µM (inactive) and the GI50 (T47D) was > 10 µM (inactive).

In the case of `CCOC(=O)c1nc2ccc(OC)cc2c2c1Cc1ccccc1-2`, the GI50 (RXF 631) is reported as 61.7 µM (inactive).

With `COC(=O)/C=C\n1nc(Br)c(=O)[nH]c1=O` the GI50 (BT-549) was > 100 µM (inactive), the GI50 (DU-145) was > 100 µM (inactive) and the GI50 (Hs-578T) was > 100 µM (inactive). The GI50 (MDA-MB-231) was > 100 µM (inactive), the GI50 (MDA-MB-435) was > 100 µM (inactive) and the GI50 (MDA-N) was > 100 µM (inactive). For the same compound, the GI50 (PC-3) was > 100 µM (inactive) and the GI50 (T47D) was > 100 µM (inactive).

`O=c1[nH]cnc2sc(=S)c3c(c12)CCC3` was tested, and the GI50 (DU-145) was 39 µM (inactive), the GI50 (Hs-578T) was 48.5 µM (inactive) and the GI50 (MDA-MB-231) was 32.6 µM (inactive). The GI50 (MDA-MB-435) was 81.8 µM (inactive), the GI50 (PC-3) was 37 µM (inactive) and the GI50 (T47D) was 19.1 µM (inactive).

With `O=S(O)c1cc(Cl)cc(Cl)c1OCc1ccccc1` the GI50 (RXF 631) was > 100 µM (inactive).

For `OCC1C2C=CC(O2)[C@H]1CO` (some centres not stated), the GI50 (RXF 631) was > 100 µM (inactive).
